SMILES strings stand for the structures.

This note sets out measurements from patent US10150766B2, “P2X7 modulators” (Jansssen Pharmaceutica NV, priority 2014, dated 2018).

Assay [1] deals with T1, P2X7 (Homo sapiens (Human), UniProt Q99572). In words: P2X7 antagonism in human peripheral blood mononuclear cells (PBMCs), IL-1β release (LPS + Bz-ATP, ELISA). It is filed as cell-based. Conditions: P2X7, 10 μM test compound, LPS 30 ng/ml + Bz-ATP 0.5 mM, read-out: PBMC @10 μM (% control). In general terms: An ELISA detects its analyte on a solid surface through an enzyme-linked reagent.

The target of assay [2] is T1, P2X7. The experiment in a line: Radioligand binding ([3H]A-804598) to membranes of human P2X7-1321N1 cells. Conditions: human P2X7-1321N1 membranes, tracer tritiated A-804598, 1 hour at 4° C. Here is the method:
P2X7 Antagonism in Recombinant Human P2X7 Cells or Recombinant Rat P2X7 Cells:
human or rat P2X7-1321N1 cells were collected and frozen @ −80° C. On the day of the experiment, cell membrane preparations were made according to standard published methods. […] The compound can be prepared as described in the literature. […] The assay was terminated by filtration (GF/B filters pre-soaked with 0.3% PEI) and washed with washing buffer (Tris-HCl 50 mM). The IC50 generated in the binding assay was corrected for tracer concentration and affinity of the tracer to derive at the affinity (Ki) of the test compounds. The data are presented in Table 2 under the headings: P2X7 human Ki (μM) and P2X7 rat Ki (μM). Data are analyzed and graphed on Graphpad Prism 5. For analysis, each concentration point is averaged from triplicate values and the averaged values are plotted on Graphpad Prism.

Assay [3] concerns the target rat P2X7 (Rattus norvegicus (Rat), UniProt Q64663). The experiment in a line: P2X7 antagonism in recombinant rat P2X7 cells (column headed P2X7 Rat IC50). It is filed as binding.
Assay [4] deals with T1, P2X7. In words: P2X7 antagonism in human whole blood, IL-1β release (LPS + Bz-ATP, ELISA). As to conditions: Human Whole Blood IC50 (μM), LPS 30 ng/ml + Bz-ATP 1 mM. It is filed as cell-based.

T1 sequence (Q99572 whole entry): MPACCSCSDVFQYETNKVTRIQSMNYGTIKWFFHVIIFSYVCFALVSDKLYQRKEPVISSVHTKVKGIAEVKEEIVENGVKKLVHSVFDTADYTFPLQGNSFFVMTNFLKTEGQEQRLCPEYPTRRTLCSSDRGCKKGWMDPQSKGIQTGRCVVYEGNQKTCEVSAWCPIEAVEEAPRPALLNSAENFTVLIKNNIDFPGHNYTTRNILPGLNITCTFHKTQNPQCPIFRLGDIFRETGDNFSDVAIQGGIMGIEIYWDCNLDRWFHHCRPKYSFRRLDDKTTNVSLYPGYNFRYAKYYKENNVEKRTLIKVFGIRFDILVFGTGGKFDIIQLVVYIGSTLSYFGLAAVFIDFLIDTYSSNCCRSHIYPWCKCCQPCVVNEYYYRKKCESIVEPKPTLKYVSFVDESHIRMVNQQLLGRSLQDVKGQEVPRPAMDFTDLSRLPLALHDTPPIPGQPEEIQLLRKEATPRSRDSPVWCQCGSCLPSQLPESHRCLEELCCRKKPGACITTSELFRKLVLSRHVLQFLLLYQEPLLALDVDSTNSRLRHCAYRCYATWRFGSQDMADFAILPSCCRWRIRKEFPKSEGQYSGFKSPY
Sequence of rat P2X7 (Q64663 whole entry): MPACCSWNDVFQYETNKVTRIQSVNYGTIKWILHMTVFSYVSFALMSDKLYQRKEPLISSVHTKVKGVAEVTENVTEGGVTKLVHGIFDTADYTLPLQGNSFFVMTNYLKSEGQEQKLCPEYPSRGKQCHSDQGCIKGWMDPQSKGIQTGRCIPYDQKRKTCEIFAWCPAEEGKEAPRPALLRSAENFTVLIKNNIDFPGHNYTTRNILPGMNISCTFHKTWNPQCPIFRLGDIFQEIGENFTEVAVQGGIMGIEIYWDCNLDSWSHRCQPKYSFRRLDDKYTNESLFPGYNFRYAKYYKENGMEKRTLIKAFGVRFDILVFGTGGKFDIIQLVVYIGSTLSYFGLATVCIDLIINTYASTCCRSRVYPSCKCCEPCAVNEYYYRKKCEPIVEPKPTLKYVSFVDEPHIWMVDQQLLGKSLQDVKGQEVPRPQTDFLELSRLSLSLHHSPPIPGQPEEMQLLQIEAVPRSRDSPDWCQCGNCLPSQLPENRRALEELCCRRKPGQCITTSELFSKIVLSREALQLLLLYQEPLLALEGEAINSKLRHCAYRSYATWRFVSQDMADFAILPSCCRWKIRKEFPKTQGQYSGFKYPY

Usually Ki stands for a measure of affinity in units of concentration, obtained from inhibition or displacement. Higher therefore signals lower affinity. As a reminder, the IC50 is the midpoint of a concentration-inhibition curve. In the case of `Cc1nc(-c2ccccn2)c2c(n1)[C@H]1CCC[C@@H](C2)N1C(=O)c1cccc(C(F)(F)F)c1C` [Example 62, (2-methyl-3-(trifluoromethyl)phenyl)((6S,10R)-2-methyl-4-(pyridin-2-yl)-5,6,7,8,9,10-hexahydro-6,10-epiminocycloocta[d]pyrimidin-11-yl)methanone], the remaining activity at 10 µM in assay [1] is -1.4%. Further, the affinity in assay [2] corresponds to a Ki of 63.1 nM. The results for the concentration for half-maximal inhibition (IC50) in assay [3] and in assay [4] were 51.3 nM and 0.058 µM, respectively.

`Cc1nc(-c2ccccn2)c2c(n1)[C@H]1CCC[C@@H](C2)N1C(=O)c1cccc(C(F)(F)F)c1Cl` [Example 63, (2-chloro-3-(trifluoromethyl)phenyl)((6S,10R)-2-methyl-4-(pyridin-2-yl)-5,6,7,8,9,10-hexahydro-6,10-epiminocycloocta[d]pyrimidin-11-yl)methanone]: the remaining activity at 10 µM in assay [1] is -0.9%. Besides, in assay [2], the Ki is 39.8 nM. Moreover, the IC50 in assay [3] is 33.1 nM; in assay [4] it was 0.068 µM.

For the molecule `Cc1nc(-c2ccccn2)c2c(n1)[C@H]1CCC[C@@H](C2)N1C(=O)c1ccc(Cl)c(F)c1Cl` [Example 64, (2,4-dichloro-3-fluorophenyl)((6S,10R)-2-methyl-4-(pyridin-2-yl)-5,6,7,8,9,10-hexahydro-6,10-epiminocycloocta[d]pyrimidin-11-yl)methanone], the remaining activity at 10 µM in assay [1] is -2.8%. This molecule also yielded a Ki in assay [2] of 20 nM. The IC50 in assay [3] is 376 nM; in assay [4], 0.037 µM.

`Cc1nc(-c2ccccn2)c2c(n1)[C@H]1CCC[C@@H](C2)N1C(=O)c1cccc(Cl)c1Cl` [Example 65, (2,3-dichlorophenyl)((6S,10R)-2-methyl-4-(pyridin-2-yl)-5,6,7,8,9,10-hexahydro-6,10-epiminocycloocta[d]pyrimidin-11-yl)methanone]: the remaining activity at 10 µM in assay [1] was 0.1%. Moreover, the Ki in assay [2] was 49 nM. Moreover, the IC50 in assay [3] is 184 nM; in assay [4] it was 0.042 µM.
